Data from ChEMBL document CHEMBL1201862, “PubChem BioAssay data set” (2004).
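Dose response: 5 concentrations. Exposure: 48 h. Format: 96-well plates. Endpoint: linear interpolation; highest concentration if not reached. GI50 = concentration required for 50% inhibition of growth.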 Calls of active or inactive are those of the source. No stated cut-off is given here; in the data, active = GI50 up to about 1.1 µM and inactive = higher.

Tests used:
Experiment in all cases: NCI tumour cell line growth inhibition, 48 h
[1] = tested on: HOP-18
[2] = tested on: DMS-273
[3] = tested on: KM-20L2
[4] = tested on: U-251
[5] = tested on: MOLT-4
[6] = tested on: RPMI-8226
[7] = tested on: OVCAR-3
[8] = tested on: SK-MEL-28
[9] = tested on: UACC-62
[10] = tested on: HT-29
[11] = tested on: A549
[12] = tested on: CAKI-1
[13] = tested on: SN12C
[14] = tested on: CCRF-CEM
[15] = tested on: EKVX
[16] = tested on: HCT-116
[17] = tested on: COLO 205
[18] = tested on: SF-295
[19] = tested on: 786-0
[20] = tested on: RXF 393
[21] = tested on: SK-MEL-5
[22] = tested on: LOX IMVI
[23] = tested on: SNB-75
[24] = tested on: HOP-92
[25] = tested on: SNB-78
[26] = tested on: NCI-H23
[27] = tested on: ACHN
[28] = tested on: SK-OV-3
[29] = tested on: IGROV-1
[30] = tested on: SW-620
[31] = tested on: A498
[32] = tested on: HOP-62
[33] = tested on: OVCAR-4
[34] = tested on: SNB-19
[35] = tested on: UACC-257
[36] = tested on: M14
[37] = tested on: HCT-15
[38] = tested on: HCC 2998
[39] = tested on: OVCAR-8
[40] = tested on: LXFL 529
[41] = tested on: M19-MEL
[42] = tested on: HL-60
[43] = tested on: TK-10
[44] = tested on: NCI-H460
[45] = tested on: XF498
[46] = tested on: DMS-114
[47] = tested on: K562
[48] = tested on: SF-539
[49] = tested on: DLD-1
[50] = tested on: SR
[51] = tested on: Malme-3M
[52] = tested on: NCI-H522
[53] = tested on: SF-268
[54] = tested on: OVCAR-5
[55] = tested on: KM12
[56] = tested on: NCI-H226
[57] = tested on: SK-MEL-2
[58] = tested on: UO-31

For `O=C(O)CCC1CCc2cccc(OCC(=O)O)c2C1=O` (stereo not given), the GI50 [1] was > 100 µM (inactive), the GI50 [2] was > 100 µM (inactive) and the GI50 [3] was > 100 µM (inactive). The GI50 [4] was > 100 µM (inactive), the GI50 [5] was > 100 µM (inactive) and the GI50 [6] was > 100 µM (inactive). The GI50 [7] was > 100 µM (inactive), the GI50 [8] was > 100 µM (inactive) and the GI50 [9] was > 100 µM (inactive). The GI50 [10] was > 100 µM (inactive), the GI50 [11] was > 100 µM (inactive) and the GI50 [12] was > 100 µM (inactive). The GI50 [13] was > 100 µM (inactive), the GI50 [14] was > 100 µM (inactive) and the GI50 [15] was > 100 µM (inactive). For the same molecule, the GI50 [16] was > 100 µM (inactive), the GI50 [17] was > 100 µM (inactive) and the GI50 [18] was > 100 µM (inactive). The GI50 [19] was > 100 µM (inactive), the GI50 [20] was > 100 µM (inactive) and the GI50 [21] was > 100 µM (inactive). The GI50 [22] was > 100 µM (inactive), the GI50 [23] was > 100 µM (inactive) and the GI50 [24] was > 100 µM (inactive). The GI50 [25] was > 100 µM (inactive), the GI50 [26] was > 100 µM (inactive) and the GI50 [27] was > 100 µM (inactive). The GI50 [28] was > 100 µM (inactive), the GI50 [29] was > 100 µM (inactive) and the GI50 [30] was > 100 µM (inactive). For the same molecule, the GI50 [31] was > 100 µM (inactive), the GI50 [32] was > 100 µM (inactive) and the GI50 [33] was > 100 µM (inactive). The GI50 [34] was > 100 µM (inactive), the GI50 [35] was > 100 µM (inactive) and the GI50 [36] was > 100 µM (inactive). The GI50 [37] was greater than 100 µM, the GI50 [38] was > 100 µM (inactive) and the GI50 [39] was > 100 µM (inactive). The GI50 [40] was > 100 µM (inactive), the GI50 [41] was > 100 µM (inactive) and the GI50 [42] was > 100 µM (inactive). The GI50 [43] was > 100 µM (inactive), the GI50 [44] was > 100 µM (inactive) and the GI50 [45] was > 100 µM (inactive). For the same molecule, the GI50 [46] was > 100 µM (inactive), the GI50 [47] was > 100 µM (inactive) and the GI50 [48] was > 100 µM (inactive). For the same molecule, the GI50 [49] was > 100 µM (inactive).
For `COc1cc2oc(-c3ccc(O)cc3)cc(=O)c2c(O)c1C1OC(CO)C(O)C(O)C1O` (stereo not given), the GI50 [1] was > 100 µM (inactive), the GI50 [2] was 62.4 µM (inactive) and the GI50 [3] was > 100 µM (inactive). The GI50 [4] was > 100 µM (inactive), the GI50 [5] was > 100 µM (inactive) and the GI50 [6] was > 100 µM (inactive). The GI50 [50] was > 100 µM (inactive), the GI50 [7] was > 100 µM (inactive) and the GI50 [8] was > 100 µM (inactive). For the same molecule, the GI50 [9] was > 100 µM (inactive), the GI50 [10] was > 100 µM (inactive) and the GI50 [11] was > 100 µM (inactive). The GI50 [12] was > 100 µM (inactive), the GI50 [51] was > 100 µM (inactive) and the GI50 [13] was > 100 µM (inactive). For the same molecule, the GI50 [52] was > 100 µM (inactive), the GI50 [14] was > 100 µM (inactive) and the GI50 [53] was > 100 µM (inactive). The GI50 [54] was > 100 µM (inactive), the GI50 [15] was > 100 µM (inactive) and the GI50 [55] was > 100 µM (inactive). For the same molecule, the GI50 [16] was > 100 µM (inactive), the GI50 [17] was > 100 µM (inactive) and the GI50 [18] was > 100 µM (inactive). The GI50 [19] was > 100 µM (inactive), the GI50 [21] was > 100 µM (inactive) and the GI50 [22] was > 100 µM (inactive). For the same molecule, the GI50 [23] was > 100 µM (inactive), the GI50 [25] was > 100 µM (inactive) and the GI50 [26] was > 100 µM (inactive). The GI50 [27] was > 100 µM (inactive), the GI50 [28] was > 100 µM (inactive) and the GI50 [56] was > 100 µM (inactive). The GI50 [29] was > 100 µM (inactive), the GI50 [30] was 11.5 µM (inactive) and the GI50 [31] was > 100 µM (inactive). The GI50 [32] was > 100 µM (inactive), the GI50 [33] was > 100 µM (inactive) and the GI50 [34] was > 100 µM (inactive). The GI50 [35] was > 100 µM (inactive), the GI50 [36] was > 100 µM (inactive) and the GI50 [37] was greater than 100 µM. The GI50 [38] was > 100 µM (inactive), the GI50 [57] was > 100 µM (inactive) and the GI50 [39] was > 100 µM (inactive). The GI50 [40] was > 100 µM (inactive), the GI50 [41] was > 100 µM (inactive) and the GI50 [42] was > 100 µM (inactive). The GI50 [43] was > 100 µM (inactive), the GI50 [44] was > 100 µM (inactive) and the GI50 [58] was > 100 µM (inactive). For the same molecule, the GI50 [45] was > 100 µM (inactive), the GI50 [46] was > 100 µM (inactive) and the GI50 [47] was > 100 µM (inactive). The GI50 [48] was > 100 µM (inactive) and the GI50 [49] was > 100 µM (inactive).
`COc1cc(C2C(Cl)C(=O)N2NC(=O)Cc2ccccc2)cc(Br)c1O` (stereo not given) was tested, and the GI50 [1] was 71.6 µM (inactive), the GI50 [2] was > 100 µM (inactive) and the GI50 [3] was > 100 µM (inactive). The GI50 [4] was > 100 µM (inactive), the GI50 [5] was 50.6 µM (inactive) and the GI50 [6] was 42.5 µM (inactive). The GI50 [50] was 56.6 µM (inactive), the GI50 [7] was 61 µM (inactive) and the GI50 [8] was > 100 µM (inactive). The GI50 [9] was 55 µM (inactive), the GI50 [10] was > 100 µM (inactive) and the GI50 [11] was > 100 µM (inactive). The GI50 [12] was > 100 µM (inactive), the GI50 [51] was > 100 µM (inactive) and the GI50 [13] was > 100 µM (inactive). The GI50 [52] was 56 µM (inactive), the GI50 [14] was 46.1 µM (inactive) and the GI50 [53] was 61 µM (inactive). For the same molecule, the GI50 [54] was > 100 µM (inactive), the GI50 [15] was 94.8 µM (inactive) and the GI50 [55] was > 100 µM (inactive). For the same molecule, the GI50 [16] was 71.4 µM (inactive), the GI50 [17] was > 100 µM (inactive) and the GI50 [18] was > 100 µM (inactive). For the same molecule, the GI50 [19] was > 100 µM (inactive), the GI50 [20] was 92.3 µM (inactive) and the GI50 [21] was 69.8 µM (inactive). For the same molecule, the GI50 [22] was 74.3 µM (inactive), the GI50 [23] was 64.9 µM (inactive) and the GI50 [25] was > 100 µM (inactive). The GI50 [26] was 76.9 µM (inactive), the GI50 [27] was > 100 µM (inactive) and the GI50 [28] was > 100 µM (inactive). For the same molecule, the GI50 [56] was > 100 µM (inactive), the GI50 [29] was > 100 µM (inactive) and the GI50 [30] was > 100 µM (inactive). The GI50 [32] was > 100 µM (inactive), the GI50 [33] was 63.5 µM (inactive) and the GI50 [34] was > 100 µM (inactive). For the same molecule, the GI50 [35] was > 100 µM (inactive), the GI50 [36] was > 100 µM (inactive) and the GI50 [37] was 51.8 µM. The GI50 [38] was > 100 µM (inactive), the GI50 [57] was > 100 µM (inactive) and the GI50 [39] was > 100 µM (inactive). For the same molecule, the GI50 [40] was 86.3 µM (inactive), the GI50 [41] was > 100 µM (inactive) and the GI50 [42] was 48 µM (inactive). For the same molecule, the GI50 [43] was > 100 µM (inactive), the GI50 [44] was 80.9 µM (inactive) and the GI50 [58] was 64.9 µM (inactive). For the same molecule, the GI50 [45] was > 100 µM (inactive), the GI50 [46] was 45 µM (inactive) and the GI50 [47] was > 100 µM (inactive). The GI50 [49] was 86.9 µM (inactive).
